Data as given in article PMC10587743 (RSC Advances, 2023).
Where two headings read alike, the source gives them in different places.

Assays:
[1] = test system: A549 lung cancer cell lines; details: cited from earlier work
[2] = test system: HePG2 liver cancer cell line; experiment: MTT cytotoxicity assay, HePG2; format: cell-based; details: Homo sapiens, HepG2, read-out: In vitro cytotoxicity IC50, HePG2
[3] = test system: MCF-7 breast cancer cell line; experiment: MTT cytotoxicity assay, MCF-7; details: Homo sapiens, MCF7, read-out: In vitro cytotoxicity IC50, MCF-7
[4] = test system: HCT-116 colon cancer cell line; experiment: MTT cytotoxicity assay, HCT-116; details: Homo sapiens, HCT-116, read-out: In vitro cytotoxicity IC50, HCT-116
[5] = test system: HePG-2, HCT-116, and MCF-7 cell lines; experiment: MTT cytotoxicity, range over the three cell lines; format: cell-based; details: 144 h, read-out: IC50 values ranging over HePG-2, HCT-116, and MCF-7 cell lines
EGFR TK = EGFR TK (Homo sapiens, UniProt P00533); experiment: EGFR kinase inhibition assay; format: biochemical
P-gp in HepG-2/ADR cells = experiment: Quantitative real-time PCR for P-glycoprotein; format: cell-based, human; details: 72 h, control HepG2 = 1
CDK-2 = CDK-2 (Homo sapiens, UniProt P24941); experiment: CDK-2 kinase inhibition assay; format: biochemical
HCT-116 cells [6] = experiment: Cell cycle analysis by flow cytometry; format: cell-based; details: HCT-116, 6o at IC50 (5.84 μM); control 42.94%
HCT-116 cells [7] = experiment: Annexin V-FITC/PI apoptosis assay; format: cell-based; details: HCT-116, 6o at IC50
leukemia L1210 cells = details: read-out: IC50 against leukemia L1210 cells; cited from earlier work
[8] = test system: breast cancer cell line (MCF-7); details: read-out: IC50 on breast cancer cell line (MCF-7); cited from earlier work

Sequence of EGFR TK (P00533 25-1210): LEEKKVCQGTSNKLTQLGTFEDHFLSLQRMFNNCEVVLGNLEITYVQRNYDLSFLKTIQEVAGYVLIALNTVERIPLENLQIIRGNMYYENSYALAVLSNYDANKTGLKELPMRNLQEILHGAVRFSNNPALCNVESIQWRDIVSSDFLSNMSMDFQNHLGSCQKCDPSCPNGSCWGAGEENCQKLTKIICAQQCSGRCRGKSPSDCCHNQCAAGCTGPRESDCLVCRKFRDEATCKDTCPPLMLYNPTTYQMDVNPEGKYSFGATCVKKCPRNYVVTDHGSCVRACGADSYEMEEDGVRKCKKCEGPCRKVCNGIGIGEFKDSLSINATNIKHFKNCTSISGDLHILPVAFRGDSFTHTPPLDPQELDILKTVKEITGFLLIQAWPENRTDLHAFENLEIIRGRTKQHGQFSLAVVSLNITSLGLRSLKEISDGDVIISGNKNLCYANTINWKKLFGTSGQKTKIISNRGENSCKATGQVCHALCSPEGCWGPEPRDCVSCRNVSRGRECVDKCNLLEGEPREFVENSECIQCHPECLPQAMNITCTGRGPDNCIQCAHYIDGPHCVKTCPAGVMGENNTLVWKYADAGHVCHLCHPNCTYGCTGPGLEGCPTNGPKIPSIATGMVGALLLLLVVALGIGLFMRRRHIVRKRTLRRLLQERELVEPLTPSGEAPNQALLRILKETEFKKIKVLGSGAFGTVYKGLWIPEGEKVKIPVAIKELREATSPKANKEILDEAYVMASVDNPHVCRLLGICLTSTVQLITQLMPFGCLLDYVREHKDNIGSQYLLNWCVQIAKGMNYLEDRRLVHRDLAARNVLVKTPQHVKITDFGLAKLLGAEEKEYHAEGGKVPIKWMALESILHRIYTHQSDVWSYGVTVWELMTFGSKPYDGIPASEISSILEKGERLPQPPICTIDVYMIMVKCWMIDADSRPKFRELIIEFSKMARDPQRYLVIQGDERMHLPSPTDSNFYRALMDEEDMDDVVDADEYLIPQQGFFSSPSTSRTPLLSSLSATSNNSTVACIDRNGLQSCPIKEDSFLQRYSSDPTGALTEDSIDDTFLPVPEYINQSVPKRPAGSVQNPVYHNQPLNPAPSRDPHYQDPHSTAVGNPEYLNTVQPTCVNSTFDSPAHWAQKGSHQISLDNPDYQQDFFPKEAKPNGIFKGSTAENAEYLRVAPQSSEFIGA

| Compound | IC50 [2] [µM] | IC50 [3] [µM] | IC50 [4] [µM] | other results |
| --- | --- | --- | --- | --- |
| O=c1[nH]cc(F)c(=O)[nH]1 [5-fluorouracil] | – | – | – | IC50 ([1]; read-out: IC50 against A549 lung cancer cell lines): < 5 µM |
| N#Cc1c(N2C(=O)c3ccc(F)cc3C2=O)c(C(=O)Nc2ccccc2)n2c1CCC2 [Compound 6a, 7-Cyano-6-(5-fluoro-1,3-dioxoisoindolin-2-yl)-N-phenyl-2,3-dihydro-1H-pyrrolizine-5-carboxamide] | 85.1 ± 4.1 | 93.5 ± 4.7 | > 100 | – |
| Cc1ccc(NC(=O)c2c(N3C(=O)c4ccc(F)cc4C3=O)c(C#N)c3n2CCC3)cc1 [Compound 6b, 7-Cyano-6-(5-fluoro-1,3-dioxoisoindolin-2-yl)-N-(p-tolyl)-2,3-dihydro-1H-pyrrolizine-5-carboxamide] | 55.4 ± 3.2 | 58.1 ± 3.3 | 66.3 ± 3.1 | – |
| N#Cc1c(N2C(=O)c3ccccc3C2=O)c(C(=O)Nc2ccc(F)cc2)n2c1CCC2 [Compound 6c, 7-Cyano-6-(1,3-dioxoisoindolin-2-yl)-N-(4-fluorophenyl)-2,3-dihydro-1H-pyrrolizine-5-carboxamide] | 49.1 ± 2.9 | 54.6 ± 3.1 | 47.9 ± 2.6 | – |
| N#Cc1c(N2C(=O)c3ccc(F)cc3C2=O)c(C(=O)Nc2ccc(F)cc2)n2c1CCC2 [Compound 6d, 7-Cyano-6-(5-fluoro-1,3-dioxoisoindolin-2-yl)-N-(4-fluorophenyl)-2,3-dihydro-1H-pyrrolizine-5-carboxamide] | 7.97 ± 0.5 | 13.9 ± 0.9 | 9.49 ± 0.6 | IC50 [5]: 6.02 to 13.9 µM; IC50 (EGFR TK): 0.362 ± 0.008 µM; P-gp RT-PCR fold change (P-gp in HepG-2/ADR cells): 0.4097 fold |
| COc1ccc(NC(=O)c2c(N3C(=O)c4ccccc4C3=O)c(C#N)c3n2CCC3)cc1 [Compound 6e, 7-Cyano-6-(1,3-dioxoisoindolin-2-yl)-N-(4-methoxyphenyl)-2,3-dihydro-1H-pyrrolizine-5-carboxamide] | 45.4 ± 2.5 | 42.7 ± 2.5 | 38.1 ± 2.4 | – |
| COc1ccc(NC(=O)c2c(N3C(=O)c4ccc(F)cc4C3=O)c(C#N)c3n2CCC3)cc1 [Compound 6f, 7-Cyano-6-(5-fluoro-1,3-dioxoisoindolin-2-yl)-N-(4-methoxyphenyl)-2,3-dihydro-1H-pyrrolizine-5-carboxamide] | 88.3 ± 4.3 | > 100 | > 100 | – |
| N#Cc1c(N2C(=O)c3ccc(F)cc3C2=O)c(C(=O)Nc2ccc(Cl)cc2)n2c1CCC2 [Compound 6g, N-(4-Chlorophenyl)-7-cyano-6-(5-fluoro-1,3-dioxoisoindolin-2-yl)-2,3-dihydro-1H-pyrrolizine-5-carboxamide] | 52 ± 2.8 | 69.4 ± 3.7 | 60.2 ± 3.3 | – |
| N#Cc1c(N2C(=O)c3ccccc3C2=O)c(C(=O)Nc2ccc(Br)cc2)n2c1CCC2 [Compound 6h, N-(4-Bromophenyl)-7-cyano-6-(1,3-dioxoisoindolin-2-yl)-2,3-dihydro-1H-pyrrolizine-5-carboxamide] | 91.4 ± 4.8 | > 100 | > 100 | – |
| N#Cc1c(N2C(=O)c3ccc(F)cc3C2=O)c(C(=O)Nc2ccc(Br)cc2)n2c1CCC2 [Compound 6i, N-(4-Bromophenyl)-7-cyano-6-(5-fluoro-1,3-dioxoisoindolin-2-yl)-2,3-dihydro-1H-pyrrolizine-5-carboxamide] | 20.4 ± 1.5 | 25.3 ± 2 | 14.3 ± 1.1 | – |
| N#Cc1c(N2C(=O)c3ccccc3C2=O)c(C(=O)Nc2ccccc2)n2c1CCCC2 [Compound 6j, 1-Cyano-2-(1,3-dioxoisoindolin-2-yl)-N-phenyl-5,6,7,8-tetrahydroindolizine-3-carboxamide] | 34.1 ± 1.9 | 31.3 ± 2.3 | 22.1 ± 1.6 | – |
| N#Cc1c(N2C(=O)c3ccc(F)cc3C2=O)c(C(=O)Nc2ccccc2)n2c1CCCC2 [Compound 6k, 1-Cyano-2-(5-fluoro-1,3-dioxoisoindolin-2-yl)-N-phenyl-5,6,7,8-tetrahydroindolizine-3-carboxamide] | 78.2 ± 3.8 | 80.6 ± 4.1 | 83.7 ± 4 | – |
| Cc1ccc(NC(=O)c2c(N3C(=O)c4ccccc4C3=O)c(C#N)c3n2CCCC3)cc1 [Compound 6l, 1-Cyano-2-(1,3-dioxoisoindolin-2-yl)-N-(p-tolyl)-5,6,7,8-tetrahydroindolizine-3-carboxamide] | 61.6 ± 3.5 | 63.2 ± 3.5 | 57.5 ± 3.1 | – |
| Cc1ccc(NC(=O)c2c(N3C(=O)c4ccc(F)cc4C3=O)c(C#N)c3n2CCCC3)cc1 [Compound 6m, 1-Cyano-2-(5-fluoro-1,3-dioxoisoindolin-2-yl)-N-(p-tolyl)-5,6,7,8-tetrahydroindolizine-3-carboxamide] | 12 ± 0.8 | 19.9 ± 1.4 | 28.4 ± 1.9 | IC50 (EGFR TK): 0.13 ± 0.011 µM; IC50 (CDK-2): 0.402 ± 0.086 µM; P-gp RT-PCR fold change (P-gp in HepG-2/ADR cells): 0.6754 fold |
| N#Cc1c(N2C(=O)c3ccccc3C2=O)c(C(=O)Nc2ccc(F)cc2)n2c1CCCC2 [Compound 6n, 1-Cyano-2-(1,3-dioxoisoindolin-2-yl)-N-(4-fluorophenyl)-5,6,7,8-tetrahydroindolizine-3-carboxamide] | 65.4 ± 3.7 | 75.8 ± 3.9 | 71.3 ± 3.5 | – |
| N#Cc1c(N2C(=O)c3ccc(F)cc3C2=O)c(C(=O)Nc2ccc(F)cc2)n2c1CCCC2 [Compound 6o, 1-Cyano-2-(5-fluoro-1,3-dioxoisoindolin-2-yl)-N-(4-fluorophenyl)-5,6,7,8-tetrahydroindolizine-3-carboxamide] | 6.02 ± 0.3 | 8.89 ± 0.5 | 5.84 ± 0.2 | IC50 [5]: 6.02 to 13.9 µM; IC50 (EGFR TK): 0.062 ± 0.003 µM; IC50 (CDK-2): 0.118 ± 0.016 µM; P-gp RT-PCR fold change (P-gp in HepG-2/ADR cells): 0.2732 fold; Cells in G1 phase (HCT-116 cells [6]): 48.75%; Late cellular apoptosis (HCT-116 cells [7]; DMSO control 0.16%, upper right quadrant): 26.51%; Early cellular apoptosis (HCT-116 cells [7]; DMSO control 0.52%, lower right quadrant): 15.16%; Total cellular apoptosis (HCT-116 cells [7]; DMSO control 2.61%): 49.16% |
| COc1ccc(NC(=O)c2c(N3C(=O)c4ccccc4C3=O)c(C#N)c3n2CCCC3)cc1 [Compound 6p, 1-Cyano-2-(1,3-dioxoisoindolin-2-yl)-N-(4-methoxyphenyl)-5,6,7,8-tetrahydroindolizine-3-carboxamide] | 73.3 ± 3.9 | 86.9 ± 4.3 | 79.6 ± 3.7 | – |
| COc1ccc(NC(=O)c2c(N3C(=O)c4ccc(F)cc4C3=O)c(C#N)c3n2CCCC3)cc1 [Compound 6q, 1-Cyano-2-(5-fluoro-1,3-dioxoisoindolin-2-yl)-N-(4-methoxyphenyl)-5,6,7,8-tetrahydroindolizine-3-carboxamide] | 41.2 ± 2.3 | 37.4 ± 2.6 | 32.2 ± 2.2 | – |
| COc1cccc2c1C(=O)c1c(O)c3c(c(O)c1C2=O)C[C@@](O)(C(=O)CO)C[C@@H]3O[C@H]1C[C@H](N)[C@H](O)[C@H](C)O1 [DOX, Doxorubicin, reference compound] | 4.5 ± 0.2 | – | – | – |
| O=C(c1ccccc1)c1ccc2n1CCC2C(=O)O (centres unmarked) [Ketorolac] | – | – | – | IC50 ([1]; read-out: IC50 against lung cancer cell lines A549): ~13 µM |
| COc1ccc(-c2csc3c2-n2cccc2C3=O)cc1O [MR22388] | – | – | – | IC50 (leukemia L1210 cells): 0.015 µM |
| CC/C(=C(\c1ccccc1)c1ccc(OCCN(C)C)cc1)c1ccccc1 [Tamoxifen, reference compound] | – | – | – | P-gp RT-PCR fold change (P-gp in HepG-2/ADR cells): 0.2176 fold |
| CC1(C)Cc2c(-c3ccccc3)c(-c3ccc(Cl)cc3)c(CC(=O)O)n2C1 [licofelone] | – | – | – | IC50 [8]: 5.5 µM |
